Assay results reported in patent US20220265685A1, “METHODS AND COMPOSITIONS FOR IMPROVING COGNITIVE FUNCTION” (priority 2010, published 2022).

What was measured:
[1] = test system: aMCI subjects; test: explicit 3-alternative forced choice task (lure stimuli), performance; type: in vivo, human; details: levetiracetam 125 mg twice a day for two weeks vs placebo, p=0.039
Source text: There are various tests known in the art for assessing cognitive function in humans, for example and without limitation, the clinical global impression of change scale (CIBIC-plus scale); the Mini Mental State Exam (MMSE); the Neuropsychiatric Inventory (NPI); the Clinical Dementia Rating Scale (CDR); the Cambridge Neuropsychological Test Automated Battery (CANTAB); the Sandoz Clinical Assessment-Geriatric (SCAG), the Buschke Selective Reminding Test (Buschke and Fuld, 1974); the Verbal Paired Associates subtest; the Logical Memory subtest; the Visual Reproduction subtest of the Wechsler Memory Scale-Revised (WMS-R) (Wechsler, 1997); or the Benton Visual Retention Test. […]
As described above, the drug treatment period is the two weeks preceding Visit 1 or 2 (with the two week period preceding the other Visit being the placebo phase). For the subjects receiving the drug treatment, half a scored 250 mg tablet of levetiracetam is used to achieve a dose of […], which is approximately 3.6 mg/kg/day (assuming an average adult human weight of 70 kg).
The activity of the subject's medial temporal lobe is measured by functional MRI during the subject's participation in an explicit 3-alternative forced choice task, where participants view novel, repeated and similar (“lure”) stimuli. […]

[2] = test system: aged-impaired (AI) rats; test: Radial Arm Maze (RAM) task, spatial memory retention of aged-impaired rats; type: in vivo, Long-Evans rats
Experimental: FIG. 1 depicts the effects of administering levetiracetam on the spatial memory retention of ten aged-impaired rats (AI) in an eight-arm Radial Arm Maze (RAM) test. Six treatment conditions are employed: vehicle control, levetiracetam (1.25 mg/kg/day), levetiracetam (2.5 mg/kg/day), levetiracetam (5 mg/kg/day), levetiracetam (10 mg/kg/day) and levetiracetam (20 mg/kg/day). In the RAM task used, there is a one-hour delay between presentation of a subset of arms (5 arms available and 3 arms blocked) and completion of the eight-arm win-shift task (eight arms available). Rats are pre-treated 30-40 minutes before daily trials with a one-time drug/control treatment. The number of errors made by the rats during the retention phase is used as a measure of spatial memory retention. Errors are defined as instances when rats enter an arm from which food has already been retrieved in the pre-delay component of the trial or when rats re-visit an arm in the post-delay session that had already been visited. Paired t-tests are used to compare the number of errors between different doses of levetiracetam and vehicle control.
FIG. 2 depicts the effects of administering donepezil only and administering a combination of donepezil and levetiracetam on the spatial memory retention of eight aged-impaired rats (AI) in an eight-arm Radial Arm Maze (RAM) test. Four treatment conditions are employed: vehicle control, donepezil only (1 mg/kg/day), donepezil (2 mg/kg/day), and a combination of donepezil (1 mg/kg/day) and levetiracetam (2.5 mg/kg/day). In the RAM task used, there is a two-hour delay between presentation of a subset of arms (5 arms available and 3 arms blocked) and completion of the eight-arm win-shift task (eight arms available). Rats are pre-treated 30-40 minutes before daily trials with a one-time drug/control treatment. The number of errors made by the rats during the retention phase is used as a measure of spatial memory retention. Errors are defined as instances when rats enter an arm from which food has already been retrieved in the pre-delay component of the trial or when rats re-visit an arm in the post-delay session that have already been visited. Paired t-tests are used to compare the number of errors between different doses of drug treatment and vehicle control.
Aged, male Long-Evans rats were obtained at 8 to 9 months of age from Charles River Laboratories (Raleigh, N.C.) and housed in a vivarium until 24 to 26 months of age. All rats were individually housed at 25° C. and maintained on a 12 h light/dark cycle. Food and water were provided ad libitum unless noted otherwise. The rats were examined for health and pathogen-free status throughout the experiments, as well as necropsies at the time of killing.
All rats were screened in a standardized assessment of spatial cognition. This background assessment used the above-described well-established MWM protocol. […] The selected AI rats were tested for their memory of new spatial information in a Radial Arm Maze (RAM) task, under different drug/control treatment conditions: vehicle control, donepezil only, levetiracetam only, and a combination of donepezil and levetiracetam. The RAM task also extended the behavioral assessment to spatial memory using appetitive motivation. We used a protocol that allowed within-subject assessment across drugs at different doses and in combinations (Koh et al., Neuropsychopharmacology, epub. 1-10, (2009)).
The radial maze consisted of eight arms projecting from each side of an octagonal center platform, with food well located at the distal end of each arm. Plexiglasm blocks could be positioned to prevent entry into any arm. Extra-maze cues were provided in the room surrounding the maze and illumination was provided by an overhead light.

CC[C@@H](C(N)=O)N1CCCC1=O [levetiracetam, (2S)-2-(2-oxopyrrolidin-1-yl) butanamide]
performance in the explicit 3-alternative forced choice task [1]: improves significantly | effective doses of levetiracetam used in the animal model ([2]; AI rats, given acutely): 5 to 10 mg/kg | memory performance in AI rats ([2]; levetiracetam 2.5 mg/kg/day individually, in the absence of donepezil): does not significantly improve memory performance | average no. of errors ± standard error of the mean (SEM), retention test ([2]; levetiracetam 5 mg/kg/day i.p., one-hour delay RAM, AI rats n=10, vehicle control 2.00±0.42): 0.75±0.32 | memory performance relative to vehicle control treatment ([2]; levetiracetam 5 mg/kg/day, one-hour delay RAM, t(9)=2.18, p=0.057): significantly improves memory performance | average no. of errors ± SEM, retention test ([2]; levetiracetam 10 mg/kg/day i.p., one-hour delay RAM, AI rats n=10, vehicle control 2.00±0.42): 0.80±0.27 | memory performance relative to vehicle control treatment ([2]; levetiracetam 10 mg/kg/day, one-hour delay RAM, t(9)=2.37, p=0.042): significantly improves memory performance | performance of AI rats in the radial maze task ([2]; levetiracetam 20 mg/kg): fails to improve the performance
